Source: patent US11834460B2, “Imide-based modulators of proteolysis and associated methods of use” (YALE UNIVERSITY, priority 2018, dated 2023)

Columns and labels:
androgen receptor (AR) = target: T1, androgen receptor (AR) (Homo sapiens, UniProt P10275); assay: AR ELISA protocol, degradation in VCaP cells; format: cell-based; design: Dmax: dose or concentration left out as unconfirmed; details: 16 h
T1 construct: detects endogenous levels of total androgen receptor protein; endogenous in cells; host or cells: VCaP
T1 sequence (P10275 1-920): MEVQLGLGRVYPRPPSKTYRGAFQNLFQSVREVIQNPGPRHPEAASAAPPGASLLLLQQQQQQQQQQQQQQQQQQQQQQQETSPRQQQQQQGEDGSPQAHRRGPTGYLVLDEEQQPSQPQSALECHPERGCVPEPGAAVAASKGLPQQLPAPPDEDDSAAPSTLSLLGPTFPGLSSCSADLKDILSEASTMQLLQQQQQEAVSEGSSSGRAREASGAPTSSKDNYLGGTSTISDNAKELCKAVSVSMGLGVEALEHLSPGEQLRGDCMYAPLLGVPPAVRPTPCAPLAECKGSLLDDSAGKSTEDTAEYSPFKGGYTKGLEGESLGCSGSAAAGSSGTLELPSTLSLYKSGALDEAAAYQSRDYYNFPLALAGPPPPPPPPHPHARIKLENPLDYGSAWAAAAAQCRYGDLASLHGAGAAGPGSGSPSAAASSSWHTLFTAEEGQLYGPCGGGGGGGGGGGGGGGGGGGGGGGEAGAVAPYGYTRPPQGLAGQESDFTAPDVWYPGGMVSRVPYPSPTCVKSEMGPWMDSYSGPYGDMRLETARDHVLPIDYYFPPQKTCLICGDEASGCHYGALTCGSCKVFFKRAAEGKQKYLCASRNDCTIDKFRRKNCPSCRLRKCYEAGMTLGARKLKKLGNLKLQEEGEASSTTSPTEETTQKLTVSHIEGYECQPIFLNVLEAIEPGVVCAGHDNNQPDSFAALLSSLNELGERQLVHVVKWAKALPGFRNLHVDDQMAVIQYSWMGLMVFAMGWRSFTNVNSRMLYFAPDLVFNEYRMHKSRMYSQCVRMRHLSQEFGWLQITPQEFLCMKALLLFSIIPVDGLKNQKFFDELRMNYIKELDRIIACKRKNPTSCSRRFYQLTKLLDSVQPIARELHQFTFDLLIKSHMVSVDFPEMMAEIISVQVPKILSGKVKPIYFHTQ
Protocol: (§1) In each bioassay, cells were treated with varying amounts of compounds encompassed by the present disclosure, as shown in Table 1. The degradation of the following proteins were evaluated in this study: TANK-binding kinase 1 (TBK1), estrogen receptor α (ERα), bromodomain-containing protein 4 (BRD4), androgen receptor (AR), and c-Myc.
VCaP cells were purchased from ATCC and cultured in Dulbecco's Modified Eagle's Medium (ATCC), supplemented with 10% FBS (ATCC) and Penicillin/Streptomycin (Life Technologies). DMSO control and compound treatments (0.0001 μM-1 μM) were performed in 96-well plates for 16 h. Cells were harvested, and lysed with Cell Lysis Buffer (Catalog #9803) (20 mM Tris-HCL (pH 7.5), 150 mM NaCl, 1 mM Na2EDTA, 1 mM EGTA, 1% Triton, 2.5 mM sodium pyrophosphate, 1 mM B-glycerophosphate, 1 mM Na3VO4, 1 ug/ml leupeptin. Lysates were clarified at 16,000 g for 10 minutes, and loaded into the PathScan AR ELISA (Cell Signaling Catalog #12850). The PathScan® Total Androgen Receptor Sandwich ELISA Kit is a solid phase sandwich enzyme-linked immunosorbent assay (ELISA) that detects endogenous levels of total androgen receptor protein. An Androgen Receptor Rabbit mAb has been coated onto the microwells. After incubation with cell lysates, androgen receptor protein is captured by the coated antibody. Following extensive washing, an Androgen Receptor Mouse Detection mAb is added to detect the captured androgen receptor protein. Anti-mouse IgG, HRP-linked Antibody is then used to recognize the bound detection antibody. HRP substrate, TMB, is added to develop color. The magnitude of absorbance for the developed color is proportional to the quantity of total androgen receptor protein. Antibodies in kit are custom formulations specific to kit.

c-Myc = c-Myc ELISA assay protocol in 22RV-1 cells; format: cell-based, human; details: 18 h, read-out: cMyc IC50
Protocol: as §1
5. c-Myc ELISA Assay Protocol
22RV-1 cells were purchased from ATCC and cultured in RPMI+10% FBS media. Cells were harvested using trypsin (Gibco #25200-114), counted and seeded at 30,000 cells/well at a volume of 75 μL/well in RPMI +10% FBS media in 96-well plates. The cells were dosed with compounds diluted in 0.1% DMSO, incubated for 18 h then washed and lysed in 50 uL RIPA buffer (50 mM Tris pH8, 150 mM NaCl, 1% Tx-100, 0.1% SDS, 0.5% sodium deoxycholate) supplemented with protease and phosphatase inhibitors. The lysates were clarified at 4000 rpm at 4° C. for 10 minutes then aliquots were added into a 96-well ELISA plate of Novex Human c-myc ELISA kit from Life Technologies Catalog #KHO2041. 50 ul of c-Myc Detection antibody was added into every well, the plates incubated at room temperature for 3 hrs, then washed with ELISA wash buffer. 100 uL of the anti-rabbit IgG-HRP secondary antibody was added to each well and incubated at room temperature for 30 minutes. The plates were washed with ELISA wash buffer, 100 μL TMB added to each well, and then monitored every 5 minutes for a color change. 100 μL of stop solution is added and the plates read at 450 nm.

For `CC1(C)C(=O)N(c2ccc(C#N)c(C(F)(F)F)c2)C(=S)N1c1ccc(OCCCOCCOCCOCCNc2cccc3c2C(=O)N(C2CCC(=O)NC2=O)C3=O)cc1` (stereo not drawn) [Compound 1, 4-(3-(4-(3-(2-(2-(2-((2-(2,6-dioxopiperidin-3-yl)-1,3-dioxoisoindolin-4-yl)amino)ethoxy)ethoxy)ethoxy)propoxy)phenyl)-4,4-dimethyl-5-oxo-2-thioxoimidazolidin-1-yl)-2-(trifluoromethyl) benzonitrile], the Dmax (androgen receptor (AR)) was 10 to 30%.

`CC1(C)C(=O)N(c2ccc(C#N)c(C(F)(F)F)c2)C(=S)N1c1ccc(OCCCOCCCOCCNc2cccc3c2C(=O)N(C2CCC(=O)NC2=O)C3=O)cc1` (stereo not drawn) [Compound 2] showed a Dmax at 1 µM (androgen receptor (AR)) of 31 to 50%.

Work on `CC1(C)C(=O)N(c2ccc(C#N)c(C(F)(F)F)c2)C(=S)N1c1ccc(OCCOCCOCCOCCNc2cccc3c2C(=O)N(C2CCC(=O)NC2=O)C3=O)cc1` (stereo not drawn) [Compound 3, 4-(3-(4-(2-(2-(2-(2-((2-(2,6-dioxopiperidin-3-yl)-1,3-dioxoisoindolin-4-yl)amino)ethoxy)ethoxy)ethoxy)ethoxy)phenyl)-4,4-dimethyl-5-oxo-2-thioxo-imidazolidin-1-yl)-2-(trifluoromethyl) benzonitrile] yielded a Dmax at 1 µM (androgen receptor (AR)) of 31 to 50%.

With `CC1(C)C(=O)N(c2ccc(C#N)c(C(F)(F)F)c2)C(=S)N1c1ccc(OCCOCCOCCOCCNc2cccc3c2C(=O)N([C@H]2CCC(=O)NC2=O)C3=O)cc1` [Compound 4, (S)-4-(3-(4-(2-(2-(2-(2-((2-(2,6-dioxopiperidin-3-yl)-1,3-dioxoisoindolin-4-yl)amino)ethoxy)ethoxy)ethoxy)ethoxy)phenyl)-4,4-dimethyl-5-oxo-2-thioxoimidazolidin-1-yl)-2-(trifluoromethyl) benzonitrile] the Dmax at 1 µM (androgen receptor (AR)) was 31 to 50%.

`CC1(C)C(=O)N(c2ccc(C#N)c(C(F)(F)F)c2)C(=S)N1c1ccc(OCCOCCOCCOCCNc2cccc3c2C(=O)N([C@@H]2CCC(=O)NC2=O)C3=O)cc1` [Compound 5, (R)-4-(3-(4-(2-(2-(2-(2-((2-(2,6-dioxopiperidin-3-yl)-1,3-dioxoisoindolin-4-yl)amino)ethoxy)ethoxy)ethoxy)ethoxy)phenyl)-4,4-dimethyl-5-oxo-2-thioxoimidazolidin-1-yl)-2-(trifluoromethyl) benzonitrile] was tested, and the Dmax at 1 µM (androgen receptor (AR)) was 31 to 50%.

Work on `CC1(C)C(=O)N(c2ccc(C#N)c(C(F)(F)F)c2)C(=S)N1c1ccc(OCCOCCOCCOCCOCCOCCNc2cccc3c2C(=O)N(C2CCC(=O)NC2=O)C3=O)cc1` (stereo not drawn) [Compound 6, 4-(3-(4-((17-((2-(2,6-dioxopiperidin-3-yl)-1,3-dioxoisoindolin-4-yl)amino)-3,6,9,12,15-pentaoxa-heptadecyl)oxy)phenyl)-4,4-dimethyl-5-oxo-2-thioxoimidazolidin-1-yl)-2-(trifluoromethyl) benzonitrile] yielded a Dmax at 1 µM (androgen receptor (AR)) of 10 to 30%.

`Cc1sc2c(c1C)C(c1ccc(Cl)cc1)=N[C@@H](CC(=O)N[C@H]1CCN(C(=O)c3ccc(OCCNc4cccc5c4C(=O)N(C4CCC(=O)NC4=O)C5=O)cc3)C1)c1nnc(C)n1-2` (stereo partly drawn) [Compound 55, 2-[(9S)-7-(4-chlorophenyl)-4,5,13-trimethyl-3-thia-1,8,11,12-tetraazatricyclo [8.3.0.0^2,^6]trideca-2(6),4,7,10,12-pentaen-9-yl]-N-[(3S)-1-[4-(2-{[2-(2,6-dioxopiperidin-3-yl)-1,3-dioxo-2,3-dihydro-1H-isoindol-4-yl]amino}ethoxy)benzoyl]pyrrolidin-3-yl]acetamide] was tested, and the IC50 (c-Myc) was < 50 nM.

In the case of `Cc1sc2c(c1C)C(c1ccc(Cl)cc1)=N[C@@H](CC(=O)Nc1ccc(OCCOCCOCCNc3cccc4nc(C)n(C5CCC(=O)NC5=O)c(=O)c34)cc1)c1nnc(C)n1-2` (stereo partly drawn) [Compound 56, 2-[(9S)-7-(4-chlorophenyl)-4,5,13-trimethyl-3-thia-1,8,11,12-tetraazatricyclo [8.3.0.0^2,^6]trideca-2(6),4,7,10,12-pentaen-9-yl]-N-(4-{2-[2-(2-{[3-(2,6-dioxopiperidin-3-yl)-2-methyl-4-oxo-3,4-dihydroquinazolin-5-yl]amino}ethoxy)ethoxy]ethoxy}phenyl)acetamide], the IC50 (c-Myc) is reported as < 50 nM.

`Cc1sc2c(c1C)C(c1ccc(Cl)cc1)=N[C@@H](CC(=O)NCCCCCNc1cccc3c1CN(C1CCC(=O)NC1=O)C3=O)c1nnc(C)n1-2` (stereo partly drawn) [Compound 57, 2-[(9S)-7-(4-chlorophenyl)-4,5,13-trimethyl-3-thia-1,8,11,12-tetraazatricyclo [8.3.0.0^2,^6]trideca-2(6),4,7,10,12-pentaen-9-yl]-N-(5-{[2-(2,6-dioxopiperidin-3-yl)-1-oxo-2,3-dihydro-1H-isoindol-4-yl]amino}pentyl) acetamide] was tested, and the IC50 (c-Myc) was < 50 nM.

For `Cc1sc2c(c1C)C(c1ccc(Cl)cc1)=N[C@@H](CC(=O)NCCCOCCCNc1cccc3nc(C)n(C4CCC(=O)NC4=O)c(=O)c13)c1nnc(C)n1-2` (stereo partly drawn) [Compound 58, 2-[(9S)-7-(4-chlorophenyl)-4,5,13-trimethyl-3-thia-1,8,11,12-tetraazatricyclo [8.3.0.0^2,^6]trideca-2(6),4,7,10,12-pentaen-9-yl]-N-[3-(3-{[3-(2,6-dioxopiperidin-3-yl)-2-methyl-4-oxo-3,4-dihydroquinazolin-5-yl]amino}propoxy)propyl]acetamide], the IC50 (c-Myc) was > 50 nM.

For `Cc1sc2c(c1C)C(c1ccc(Cl)cc1)=N[C@@H](CC(=O)N[C@H]1CCN(C(=O)c3ccc(OCCNc4cccc5c4CN(C4CCC(=O)NC4=O)C5=O)cc3)C1)c1nnc(C)n1-2` (stereo partly drawn) [Compound 59, 2-[(9S)-7-(4-chlorophenyl)-4,5,13-trimethyl-3-thia-1,8,11,12-tetraazatricyclo [8.3.0.0^2,^6]trideca-2(6),4,7,10,12-pentaen-9-yl]-N-[(3S)-1-[4-(2-{[2-(2,6-dioxopiperidin-3-yl)-1-oxo-2,3-dihydro-1H-isoindol-4-yl]amino}ethoxy)benzoyl]pyrrolidin-3-yl]acetamide], the IC50 (c-Myc) was > 50 nM.

For `Cc1sc2c(c1C)C(c1ccc(Cl)cc1)=N[C@@H](CC(=O)N[C@H](C)c1cccc(OCCNc3cccc4c3CN(C3CCC(=O)NC3=O)C4=O)c1)c1nnc(C)n1-2` (stereo partly drawn) [Compound 60, 2-[(9S)-7-(4-chlorophenyl)-4,5,13-trimethyl-3-thia-1,8,11,12-tetraazatricyclo [8.3.0.0^2,^6]trideca-2(6),4,7,10,12-pentaen-9-yl]-N-[(1R)-1-[3-(2-{[2-(2,6-dioxopiperidin-3-yl)-1-oxo-2,3-dihydro-1H-isoindol-4-yl]amino}ethoxy)phenyl]ethyl] acetamide], the IC50 (c-Myc) was > 50 nM.
